Laboratory results: patent publication US11142525B2 (Pfizer Inc., priority 2018, dated 2021)
Structures can show the parent of a compound that is named as a salt.

Columns and labels:
[1] = molecular target: human full-length recombinant HPK1 (Homo sapiens (Human), UniProt Q92918); test: HPK1 biochemical enzyme assay, microfluidic mobility shift assay (MSA); settings: mobility shift assay; 75 μM ATP; Morrison equation, tight-binding competitive inhibition; read-out: HPK1 Enzyme Assay_Ki
Procedure: HPK1 enzyme inhibition was measured using a microfluidic mobility shift assay (MSA). […] The reactions were conducted for 60 min at 37° C., stopped by the addition of 50 μL of 0.015 M EDTA, pH 8, and the extent of reactions (˜15-20% conversion with no inhibitor) was determined after electrophoretic separation of the fluorescently labeled peptide substrate and phosphorylated product on an LabChip EZ Reader II (PerkinElmer, Inc., Waltham, Mass.). […]

[2] = test system: phospho-SLP-76 (Ser376) in Jurkat cells; test: Phospho-SLP-76 (Ser376) Homogeneous Time Resolved Fluorescence (HTRF) assay in Jurkat cells; format: cell-based; settings: Homo sapiens, 30 min pre-treatment, anti-CD3 stimulation 15 min, HTRF, read-out: SLP76 Assay_IC50
Procedure: Jurkat cells were seeded at 90,000 cells/well in 90 uL of RPMI1640 growth medium containing 10% FBS and incubated at 37° C. with 5% CO2 overnight. The following day, compounds were serially diluted from a 10 mM top dose for an 11-point 3 fold dilution curve in DMSO. Compounds were intermediately diluted 1:100 into growth media prior to diluting 1:10 on cells for final concentration 10 μM to 0.1 nM in 0.1% DMSO. After 30 minutes pre-treatment with compounds, the cells were stimulated using 200 μg/mL of F(ab)2 complexed anti-CD3 (clone UCTH1) for 15 min at 37° C. with 5% CO2. Stimulation was stopped with ice cold PBS and cells were harvested by centrifugation before lysis in Cisbio lysis buffer (Cisbio, Bedford, Mass.). Lysates were transferred to white, low-volume plates containing anti-phospho-SLP-76-Cryptate plus anti-phospho-SLP-76-d2 HTRF antibodies and incubated overnight at room temperature protected from light according to the manufacturer's protocol (Cisbio, Bedford, Mass.). HTRF was measured on a Perkin Elmer Envision and IC50 values were calculated by concentration-response curve fitting utilizing four-parameter nonlinear regression analyses.

Chain of human full-length recombinant HPK1 (Q92918 whole entry): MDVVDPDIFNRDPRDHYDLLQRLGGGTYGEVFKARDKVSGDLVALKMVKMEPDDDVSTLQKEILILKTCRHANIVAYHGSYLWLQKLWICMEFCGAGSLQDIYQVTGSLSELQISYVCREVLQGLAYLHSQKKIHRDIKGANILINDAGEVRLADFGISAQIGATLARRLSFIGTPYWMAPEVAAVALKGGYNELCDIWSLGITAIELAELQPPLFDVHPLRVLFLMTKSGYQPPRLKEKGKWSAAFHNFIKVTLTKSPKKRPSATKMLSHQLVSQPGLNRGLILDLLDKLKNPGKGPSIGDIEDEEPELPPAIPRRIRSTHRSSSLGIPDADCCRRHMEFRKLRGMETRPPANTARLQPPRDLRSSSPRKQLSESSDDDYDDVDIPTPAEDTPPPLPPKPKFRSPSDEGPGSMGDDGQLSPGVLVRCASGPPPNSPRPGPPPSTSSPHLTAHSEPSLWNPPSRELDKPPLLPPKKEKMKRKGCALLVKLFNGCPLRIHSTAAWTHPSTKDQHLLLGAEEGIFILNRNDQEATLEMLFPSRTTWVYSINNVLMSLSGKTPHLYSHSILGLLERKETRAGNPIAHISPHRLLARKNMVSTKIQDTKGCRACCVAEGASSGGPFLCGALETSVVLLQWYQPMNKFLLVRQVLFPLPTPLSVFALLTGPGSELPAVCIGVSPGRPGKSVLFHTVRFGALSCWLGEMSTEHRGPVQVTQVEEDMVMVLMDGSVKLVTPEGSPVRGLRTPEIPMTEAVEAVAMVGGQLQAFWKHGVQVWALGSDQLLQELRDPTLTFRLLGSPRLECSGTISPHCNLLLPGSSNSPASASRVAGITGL

SMILES	Ki [1]	IC50 [2]
CNCc1nc(C(C)(C)C)cc2c1CN(c1cccc(-c3nncn3C(C)C)n1)C2=O [Example 29, 6-tert-butyl-4-[(methylamino)methyl]-2-{6-[4-(propan-2-yl)-4H-1,2,4-triazol-3-yl]pyridin-2-yl}-2,3-dihydro-1H-pyrrolo[3,4-c]pyridin-1-one]	3.2 nM	396 nM
CC(C)n1cnnc1-c1cccc(N2Cc3c(cc(N4[C@H](C)C[C@@H]4C)nc3CN)C2=O)n1 [Example 34, 4-(aminomethyl)-6-[(2R,4S)-2,4-dimethylazetidin-1-yl]-2-{6-[4-(propan-2-yl)-4H-1,2,4-triazol-3-yl]pyridin-2-yl}-2,3-dihydro-1H-pyrrolo[3,4-c]pyridin-1-one]	1.32 nM	379 nM
C[C@H]1COC(=O)N1c1cccc(N2Cc3c(cc(C(C)(C)C)nc3CN)C2=O)n1 [Example 36, 4-(aminomethyl)-6-tert-butyl-2-{6-[(4S)-4-methyl-2-oxo-1,3-oxazolidin-3-yl]pyridin-2-yl}-2,3-dihydro-1H-pyrrolo[3,4-c]pyridin-1-one]	5.1 nM	1110 nM
CNCc1nc(C(C)(C)C)cc2c1CN(c1cccc(N3C(=O)OC[C@@H]3C)n1)C2=O [Example 39, 6-tert-butyl-4-[(methylamino)methyl]-2-{6-[(4S)-4-methyl-2-oxo-1,3-oxazolidin-3-yl]pyridin-2-yl}-2,3-dihydro-1H-pyrrolo[3,4-c]pyridin-1-one]	1.8 nM	672 nM
CNCc1nc(C2CC2)cc2c1CN(c1cccc(N3C(=O)OC[C@@H]3C)n1)C2=O [Example 40, 6-cyclopropyl-4-[(methylamino)methyl]-2-{6-[(4S)-4-methyl-2-oxo-1,3-oxazolidin-3-yl]pyridin-2-yl}-2,3-dihydro-1H-pyrrolo[3,4-c]pyridin-1-one]	0.81 nM	137 nM
C[C@H]1COC(=O)N1c1cccc(N2Cc3c(cc(N4CCC4)nc3CN)C2=O)n1 [Example 44, 4-(aminomethyl)-6-(azetidin-1-yl)-2-{6-[(4S)-4-methyl-2-oxo-1,3-oxazolidin-3-yl]pyridin-2-yl}-2,3-dihydro-1H-pyrrolo[3,4-c]pyridin-1-one]	0.4 nM	244 nM
CCCn1cnnc1-c1cccc(N2Cc3c(cc(N(C)C)nc3CNC)C2=O)n1 [Example 46, 6-(dimethylamino)-4-[(methylamino)methyl]-2-[6-(4-propyl-4H-1,2,4-triazol-3-yl)pyridin-2-yl]-2,3-dihydro-1H-pyrrolo[3,4-c]pyridin-1-one]	0.14 nM	94 nM
CNCc1nc(C)cc2c1CN(c1cccc(-c3nncn3C(C)C)n1)C2=O [Example 47, 6-methyl-4-[(methylamino)methyl]-2-{6-[4-(propan-2-yl)-4H-1,2,4-triazol-3-yl]pyridin-2-yl}-2,3-dihydro-1H-pyrrolo[3,4-c]pyridin-1-one]	7.1 nM	1520 nM
CNCc1nc(C2(C)CC2)cc2c1CN(c1cccc(N3C(=O)OC[C@@H]3C)n1)C2=O [Example 49, 4-[(methylamino)methyl]-6-(1-methylcyclopropyl)-2-{6-[(4S)-4-methyl-2-oxo-1,3-oxazolidin-3-yl]pyridin-2-yl}-2,3-dihydro-1H-pyrrolo[3,4-c]pyridin-1-one]	1.46 nM	730 nM
CNCc1nc(N2[C@H](C)C[C@@H]2C)cc2c1CN(c1cccc(-c3nncn3C(C)C)n1)C2=O [Example 53, 6-[(2R,4S)-2,4-dimethylazetidin-1-yl]-4-[(methylamino)methyl]-2-{6-[4-(propan-2-yl)-4H-1,2,4-triazol-3-yl]pyridin-2-yl}-2,3-dihydro-1H-pyrrolo[3,4-c]pyridin-1-one]	0.61 nM	489 nM

Continued by falling Ki [1], values first:

Ki [1]	IC50 [2]	SMILES
4.6 nM	315 nM	CC(C)c1cc2c(c(CN)n1)CN(c1cccc(N3C(=O)OC[C@@H]3C)n1)C2=O [Example 41, 4-(aminomethyl)-2-{6-[(4S)-4-methyl-2-oxo-1,3-oxazolidin-3-yl]pyridin-2-yl}-6-(propan-2-yl)-2,3-dihydro-1H-pyrrolo[3,4-c]pyridin-1-one]
2.1 nM	573 nM	CNCc1nc(C(C)C)cc2c1CN(c1cccc(-c3nncn3C(C)C)n1)C2=O [Example 30, 4-[(methylamino)methyl]-6-(propan-2-yl)-2-{6-[4-(propan-2-yl)-4H-1,2,4-triazol-3-yl]pyridin-2-yl}-2,3-dihydro-1H-pyrrolo[3,4-c]pyridin-1-one]
1.92 nM	561 nM	C[C@@H]1C[C@@H](C)N1c1cc2c(c(CN)n1)CN(c1cccc(N3C(=O)OC[C@@H]3C)n1)C2=O [Example 43, 4-(aminomethyl)-6-[(2R,4R)-2,4-dimethylazetidin-1-yl]-2-{6-[(4S)-4-methyl-2-oxo-1,3-oxazolidin-3-yl]pyridin-2-yl}-2,3-dihydro-1H-pyrrolo[3,4-c]pyridin-1-one]
1.5 nM	487 nM	CNCc1nc(N(C)C)cc2c1CN(c1cccc(N3C(=O)OC[C@@H]3C(F)F)n1)C2=O [Example 37, 2-{6-[(4R)-4-(difluoromethyl)-2-oxo-1,3-oxazolidin-3-yl]pyridin-2-yl}-6-(dimethylamino)-4-[(methylamino)methyl]-2,3-dihydro-1H-pyrrolo[3,4-c]pyridin-1-one]
0.41 nM	119 nM	CNCc1nc(N2[C@H](C)C[C@H]2C)cc2c1CN(c1cccc(-c3nncn3C(C)C)n1)C2=O [Example 28, 6-[(2R,4R)-2,4-dimethylazetidin-1-yl]-4-[(methylamino)methyl]-2-{6-[4-(propan-2-yl)-4H-1,2,4-triazol-3-yl]pyridin-2-yl}-2,3-dihydro-1H-pyrrolo[3,4-c]pyridin-1-one]
0.38 nM	147 nM	CCN(CC)c1cc2c(c(CN)n1)CN(c1cccc(-c3nncn3C(C)C)n1)C2=O [Example 38, 4-(aminomethyl)-6-(diethylamino)-2-{6-[4-(propan-2-yl)-4H-1,2,4-triazol-3-yl]pyridin-2-yl}-2,3-dihydro-1H-pyrrolo[3,4-c]pyridin-1-one]
0.34 nM	210 nM	C[C@H]1COC(=O)N1c1cccc(N2Cc3c(cc(N(C)C)nc3CN)C2=O)n1 [Example 32, 4-(aminomethyl)-6-(dimethylamino)-2-{6-[(4S)-4-methyl-2-oxo-1,3-oxazolidin-3-yl]pyridin-2-yl}-2,3-dihydro-1H-pyrrolo[3,4-c]pyridin-1-one]
0.34 nM	139 nM	CCCn1cnnc1-c1cccc(N2Cc3c(cc(N(C)CC)nc3CN)C2=O)n1 [Example 56, 4-(aminomethyl)-6-[ethyl(methyl)amino]-2-[6-(4-propyl-4H-1,2,4-triazol-3-yl)pyridin-2-yl]-2,3-dihydro-1H-pyrrolo[3,4-c]pyridin-1-one hydrochloride]
0.33 nM	192 nM	C[C@H]1COC(=O)N1c1cccc(N2Cc3c(cc(C4(C)CC4)nc3CN)C2=O)n1 [Example 42, 4-(aminomethyl)-6-(1-methylcyclopropyl)-2-{6-[(4S)-4-methyl-2-oxo-1,3-oxazolidin-3-yl]pyridin-2-yl}-2,3-dihydro-1H-pyrrolo[3,4-c]pyridin-1-one]
0.28 nM	134 nM	CNCc1nc(N2CCC2)cc2c1CN(c1cccc(N3C(=O)OC[C@@H]3C)n1)C2=O [Example 33, 6-(azetidin-1-yl)-4-[(methylamino)methyl]-2-{6-[(4S)-4-methyl-2-oxo-1,3-oxazolidin-3-yl]pyridin-2-yl}-2,3-dihydro-1H-pyrrolo[3,4-c]pyridin-1-one]
0.17 nM	173 nM	CNCc1nc(N(C)C)cc2c1CN(c1cccc(N3C(=O)OC[C@@H]3CF)n1)C2=O [Example 45, 6-(dimethylamino)-2-{6-[(4R)-4-(fluoromethyl)-2-oxo-1,3-oxazolidin-3-yl]pyridin-2-yl}-4-[(methylamino)methyl]-2,3-dihydro-1H-pyrrolo[3,4-c]pyridin-1-one]
0.14 nM	94 nM	CCN(C)c1cc2c(c(CNC)n1)CN(c1cccc(-c3nncn3C(C)C)n1)C2=O [Example 48, 6-[ethyl(methyl)amino]-4-[(methylamino)methyl]-2-{6-[4-(propan-2-yl)-4H-1,2,4-triazol-3-yl]pyridin-2-yl}-2,3-dihydro-1H-pyrrolo[3,4-c]pyridin-1-one]
0.14 nM	94 nM	CNCc1nc(N)cc2c1CN(c1cccc(-c3nncn3C(C)C)n1)C2=O [Example 50, 6-amino-4-[(methylamino)methyl]-2-{6-[4-(propan-2-yl)-4H-1,2,4-triazol-3-yl]pyridin-2-yl}-2,3-dihydro-1H-pyrrolo[3,4-c]pyridin-1-one]
0.12 nM	183 nM	CC(C)c1cnnn1-c1cccc(N2Cc3c(cc(N(C)C)nc3CN)C2=O)n1 [Example 35, 4-(aminomethyl)-6-(dimethylamino)-2-{6-[5-(propan-2-yl)-1H-1,2,3-triazol-1-yl]pyridin-2-yl}-2,3-dihydro-1H-pyrrolo[3,4-c]pyridin-1-one]
